What all share (assay type): cell-based, human
The subject of one experiment is AsPC-1 cells. Nature of the experiment: 3D cell proliferation assay (CellTiter Glo-3D), AsPC-1. To be noted: Homo sapiens, ASPC1, 120 h, read-out: AsPC-1 AP IC50(nM). As to the method:
(§1) The cells were digested with trypsin (containing EDTA), collected in their respective low-serum complete media containing 2% FBS (for MIA Paca-2 cell culture: DMEM + 2% FBS + 0.5% Horse serum + 1% PS), and counted. After the cell density was adjusted as required, 200 MIA PaCa-2 cells, 800 AsPC-1 cells, 800 NCI-H441 cells, or 400 NCI-H1975 cells per well were seeded into a 384-well cell culture plate, with the volume of the medium in each well being 45 µL. The cell culture plate was incubated in an incubator at 37 °C with 5% CO2 overnight. […] On the day after cell seeding, 5 µL of the 10× compound stock solution was added to each cell culture well. […] In addition to the compound-treated wells described above, cell-containing DMSO control wells (with 5 µL of the complete medium containing 1% DMSO added to each well) and cell-free medium control wells (containing 50 µL of the complete medium with 2% FBS) were also set. The culture plate was incubated in an incubator at 37 °C with 5% CO2 for another 5 days, and then 30 µL of CellTiter-Glo working solution was added to each well. The mixture was well mixed, incubated for 30 min, left to stand at room temperature for 30 min, and then transferred to a white-bottomed, opaque 384-well assay plate at 40 µL/well. […] Using an XLfit software, the IR (%) values were plotted against the logarithm of the compound concentrations, and the dose-response curves were fitted using the four-parameter method to calculate the IC50 values.

The next experiment concerns H441 p-ERK. Nature of the experiment: Cell p-ERK assay (HTRF), NCI-H441 cells. To be noted: Homo sapiens; NCI-H441 cells (KRAS G12V), 3 h incubation. As for the experimental part: (§2) The cells were digested with trypsin (containing EDTA), collected in their corresponding complete media, and counted. The density of the cell suspensions was adjusted with their corresponding complete media, and 10000 AsPC-1 cells or 20000 NCI-H441 cells per well were seeded into a 96-well cell culture plate, with the volume of the medium in each well being 80 µL. The cell culture plate was incubated in an incubator at 37 °C with 5% CO2 overnight. […] On the day after cell seeding, 20 µL of the 5× compound stock solution was added to each cell culture well. […] In addition to the compound-treated wells described above, cell-containing DMSO control wells were also set. A complete medium containing 0.5% DMSO was added at 20 µL/well. After the mixture was well mixed, the culture plate was incubated in the incubator at 37 °C with 5% CO2 for another 3 h. The medium was then removed from the culture wells, and 50 µL of cell lysis buffer (from Advance ERK phospho-T202/Y204 kit) was added to each well. The mixture was well mixed and incubated for 30 min. Then, 16 µL of the mixture was transferred to a white-bottomed, opaque 96-well assay plate, and separately, 16 µL of cell lysis buffer was added to additional wells (serving as blank wells) in the assay plate. After the transfer was completed, 4 µL of p-ERK HTRF antibody mixture (from Advance ERK phospho-T202/Y204 kit) was added to each well of the assay plate, followed by a 4-hour incubation. […] Using an XLfit software, the IR (%) values were plotted against the logarithm of the compound concentrations, and the dose-response curves were fitted using the four-parameter method to calculate the IC50 values.
(In TR-FRET formats the signal depends on donor and acceptor labels being close together.)

The subject of another experiment is NCI-H441 cells. Nature of the experiment: 3D cell proliferation assay (CellTiter Glo-3D), NCI-H441. The conditions noted are these: Homo sapiens, 120 h, NCI-H441 cells (KRAS G12V), 2% FBS, 5 days, read-out: H441 AP IC50. As to the method: as §1
In general terms: Cellular ATP, detected with luciferase, serves as a proxy for viable cell number.

A further experiment concerns AsPC-1 p-ERK. Put plainly: Cell p-ERK assay (HTRF), AsPC-1 cells. To be noted: Homo sapiens, ASPC1, 3 h, read-out: AsPC-1 p-ERK IC50(nM). As for the experimental part: as §2

Each structure is given as a SMILES string.

On to `CCn1c(-c2cc(C#CCN3CCC(C#N)(CO)CC3)cnc2[C@H](C)OC)c2c3cc(ccc31)-c1csc(n1)C[C@H](NC(=O)[C@H]1[C@H](C)[C@@H]1C)C(=O)N1CCC[C@H](N1)C(=O)OCC(C)(C)C2` (atropisomer, axis not shown; (Ra)) [Compound Z23, (1r,2R,3S)-N-((6^3S,4S,Z)-(Ra)-1^2-(5-(3-(4-cyano-4-(hydroxymethyl)piperidin-1-yl)prop-1-yn-1-yl)-2-((S)-1-methoxyethyl)pyridin-3-yl)-1^1-ethyl-10,10-dimethyl-5,7-dioxo-6^1,6^2,6^3,6^4,6^5,6^6-hexahydro-1^1H-8-oxa-2(4,2)-thiazola-1(5,3)-indola-6(1,3)-pyridazinacycloundecaphane-4-yl)-2,3-dimethylcyclopropane-1-carboxamide], for which the IC50 (as a rule, the concentration that gives 50% inhibition) turned out to be 0.03 nM with AsPC-1 cells, 0.1 nM with H441 p-ERK, 0.06 nM with NCI-H441 cells and 0.08 nM in the experiment with AsPC-1 p-ERK.

As to `CCn1c(-c2cc(C#CCN3CCC(C#N)(CO)CC3)cnc2[C@H](C)OC)c2c3cc(ccc31)-c1csc(n1)C[C@H](NC(=O)[C@H]1[C@@H]3COC[C@@H]31)C(=O)N1CCC[C@H](N1)C(=O)OCC(C)(C)C2` (atropisomer, axis not shown; (Ra)) [Compound Z30, (1R,5S,6r)-N-((6^3S,4S,Z)-(Ra)-1^2-(5-(3-(4-cyano-4-(hydroxymethyl)piperidin-1-yl)prop-1-yn-1-yl)-2-((S)-1-methoxyethyl)pyridin-3-yl)-11-ethyl-10,10-dimethyl-5,7-dioxo-6^1,6^2,6^3,6^4,6^5,6^6-hexahydro-1^1H-8-oxa-2(4,2)-thiazola-1(5,3)-indola-6(1,3)-pyridazinacycloundecaphane-4-yl)-3-oxabicyclo[3.1.0]hexane-6-carboxamide], the IC50 in the experiment on AsPC-1 cells came to 0.07 nM; in the experiment on H441 p-ERK, 0.15 nM; in the experiment on NCI-H441 cells, 0.11 nM; in the experiment on AsPC-1 p-ERK, 0.07 nM.

In the case of `CCn1c(-c2cc(C#CCN3CCC(N)(C#N)CC3)cnc2[C@H](C)OC)c2c3cc(ccc31)-c1csc(n1)C[C@H](NC(=O)[C@H]1[C@@H]3COC[C@@H]31)C(=O)N1CCC[C@H](N1)C(=O)OCC(C)(C)C2` (atropisomer, axis not shown; (Ra)) [Compound Z51, (1R,5S,6r)-N-((6^3S,4S,Z)-(Ra)-1^2-(5-(3-(4-amino-4-cyanopiperidin-1-yl)prop-1-yn-1-yl)-2-((S)-1-methoxyethyl)-pyridin-3-yl)-1^1-ethyl-10,10-dimethyl-5,7-dioxo-6^1,6^2,6^3,6^4,6^5,6^6-hexahydro-11H-8-oxa-2(4,2)-thiazola-1(5,3)-indola-6(1,3)-pyridazinacycloundecaphane-4-yl)-3-oxabicyclo[3.1.0]hexane-6-carboxamide], the IC50 in the experiment with AsPC-1 cells is 0.42 nM; in the experiment on H441 p-ERK, 0.18 nM; in the experiment on NCI-H441 cells, 0.28 nM; in the experiment with AsPC-1 p-ERK, 0.27 nM.

As to `CCn1c(-c2cc(C#CCN3CCN(C)CC3)cnc2[C@H](C)OC)c2c3cc(ccc31)-c1csc(n1)C[C@H](NC(=O)[C@H]1[C@@H]3COC[C@@H]31)C(=O)N1CCC[C@H](N1)C(=O)OCC(C)(C)C2` (atropisomer, axis not shown; (Ra)) [Compound Z83, (1R,5S,6r)-N-((6^3S,4S,Z)-1^1-ethyl-(Ra)-1^2-(2-((S)-1-methoxyethyl)-5-(3-(4-methylpiperazin-1-yl)prop-1-yn-1-yl)pyridin-3-yl)-10,10-dimethyl-5,7-dioxo-6^1,6^2,6^3,6^4,6^5,6^6-hexahydro-1^1H-8-oxa-2(4,2)-thiazola-1(5,3)-indola-6(1,3)-pyridazinacycloundecaphane-4-yl)-3-oxabicyclo[3.1.0]hexane-6-carboxamide], the IC50 in the experiment on AsPC-1 cells was determined as 0.12 nM; in the experiment with H441 p-ERK it was 0.42 nM; in the experiment with NCI-H441 cells, 0.09 nM; in the experiment on AsPC-1 p-ERK, 0.64 nM.

As for `CO[C@@H](C)c1ncc(C#CCN2CCN(C(=O)CN)CC2)cc1-c1c2c3cc(ccc3n1C(C)C)-c1csc(n1)C[C@H](NC(=O)[C@H]1[C@@H]3COC[C@@H]31)C(=O)N1CCC[C@H](N1)C(=O)OCC(C)(C)C2` (atropisomer, axis not shown; (Ra)) [Compound Z84, (1R,5S,6r)-N-((6^3S,4S,Z)-(Ra)-1^2-(5-(3-(4-glycylpiperazin-1-yl)prop-1-yn-1-yl)-2-((S)-1-methoxyethyl)pyridin-3-yl)-1^1-isopropyl-10,10-dimethyl-5,7-dioxo-6^1,6^2,6^3,6^4,6^5,6^6-hexahydro-1^1H-8-oxa-2(4,2)-thiazola-1(5,3)-indola-6(1,3)-pyridazinacycloundecaphane-4-yl)-3-oxabicyclo[3.1.0]hexane-6-carboxamide], the IC50 in the experiment with AsPC-1 cells turned out to be 2.7 nM; in the experiment on H441 p-ERK, 1.47 nM; in the experiment on NCI-H441 cells, 3.02 nM; in the experiment with AsPC-1 p-ERK, 1.56 nM.

For `CCn1c(-c2cc(C#CCN3CCN(C(=O)CNC)CC3)cnc2[C@H](C)OC)c2c3cc(ccc31)-c1csc(n1)C[C@H](NC(=O)[C@H]1[C@@H]3COC[C@@H]31)C(=O)N1CCC[C@H](N1)C(=O)OCC(C)(C)C2` (atropisomer, axis not shown; (Ra)) [Compound Z164], the IC50 in the experiment on AsPC-1 cells stood at 2.59 nM; in the experiment with H441 p-ERK, 1.51 nM; in the experiment on NCI-H441 cells, 2.04 nM; with AsPC-1 p-ERK it was 2.08 nM.

Regarding `CCn1c(-c2cc(C#CCN3CCN(C(=O)CN)CC3)cnc2[C@H](C)OC)c2c3cc(ccc31)-c1csc(n1)[C@@H](OCCN(C)C)[C@H](NC(=O)[C@H]1[C@H](C)[C@@H]1C)C(=O)N1CCC[C@H](N1)C(=O)OCC(C)(C)C2` (atropisomer, axis not shown; (Ra)) [Compound Z165], the IC50 in the experiment on AsPC-1 cells turned out to be 10 nM; in the experiment with H441 p-ERK, 13.7 nM; in the experiment with NCI-H441 cells, 24.4 nM; in the experiment on AsPC-1 p-ERK, 10.3 nM.

Turning to `CCn1c(-c2cc(C#CCN3CCS(=O)(=O)CC3)cnc2[C@H](C)OC)c2c3cc(ccc31)-c1csc(n1)C[C@H](Nc1n[nH]c3cc(C)ccc13)C(=O)N1CCC[C@H](N1)C(=O)OCC(C)(C)C2` (atropisomer, axis not shown; (Ra)) [Compound Z171, (6^3S,4S,Z)-(Ra)-1^2-(5-(3-(1,1-dioxidothiomorpholino)prop-1-yn-1-yl)-2-((S)-1-methoxyethyl)pyridin-3-yl)-1^1-ethyl-10,10-dimethyl-4-((6-methyl-1H-indazol-3-yl)amino)-6^1,6^2,6^3,6^4,6^5,6^6-hexahydro-1^1H-8-oxa-2(4,2)-thiazola-1(5,3)-indola-6(1,3)-pyridazinacycloundecaphane-5,7-dione], the IC50 in the experiment on AsPC-1 cells is 1.36 nM; in the experiment on H441 p-ERK, 0.53 nM; in the experiment with NCI-H441 cells, 2.78 nM; with AsPC-1 p-ERK, 0.97 nM.

Take `CCn1c(-c2cc(C#CCN3CCCOCC3)cnc2[C@H](C)OC)c2c3cc(ccc31)-c1csc(n1)C[C@H](NC1=NOC(CC)(CC)C1)C(=O)N1CCC[C@H](N1)C(=O)OCC(C)(C)C2` (atropisomer, axis not shown; (Ra)) [Compound Z279, (6^3S,4S,Z)-(Ra)-1^2-(5-(3-(1,4-oxazepan-4-yl)prop-1-yn-1-yl)-2-((S)-1-methoxyethyl)pyridin-3-yl)-1^1-ethyl-10,10-dimethyl-4-((5,5-diethyl-4,5-dihydroisoxazol-3-yl)amino)-6^1,6^2,6^3,6^4,6^5,6^6-hexahydro-1^1H-8-oxa-2(4,2)-thiazola-1(5,3)-indola-6(1,3)-pyridazinacycloundecaphane-5,7-dione]: the IC50 with AsPC-1 cells worked out at 6.05 nM; in the experiment on H441 p-ERK, 1.03 nM; in the experiment with NCI-H441 cells it was 3.26 nM; in the experiment on AsPC-1 p-ERK it was 1.83 nM.

The values above are taken from patent EP4775582A1, “MACROCYCLIC COMPOUND AND ANTIBODY-DRUG CONJUGATE THEREOF” (Genfleet Therapeutics (Shanghai) Inc., priority 2023, dated 2025).
